The text below walks through data of patent US9763445B2, “Safened herbicidal compositions comprising a pyridine carboxylic acid herbicide” (Dow AgroSciences, LLC, priority 2014, dated 2017).

One data set deals with spring barley (HORVS). In words: Postemergence greenhouse trial, % visual injury on spring barley. The class given is in vivo, Hordeum vulgare. The conditions noted are these: HORVS. As for the experimental part:
(§1) Seeds of the desired test plant species were planted in Sun Gro MetroMix® 306 planting mixture, which typically has a pH of 6.0 to 6.8 and an organic matter content of about 30 percent, in plastic pots with a surface area of 103.2 square centimeters (cm^2). When required to ensure good germination and healthy plants, a fungicide treatment and/or other chemical or physical treatment was applied. The plants were grown for 7-36 days (d) in a greenhouse with an approximate 14-hour (h) photoperiod which was maintained at about 23° C. during the day and 22° C. during the night. Nutrients and water were added on a regular basis and supplemental lighting was provided with overhead metal halide 1000-Watt lamps as necessary. The plants were employed for testing when they reached the second or third true leaf stage.
(§2) Weighed amounts of technical material were dissolved in a volume of 97:3 volume per volume (v/v) acetone/dimethyl sulfoxide (DMSO) to stock solutions. […] The concentrated stock solutions were diluted with an aqueous mixture of 1.5% v/v of Agri-dex crop oil concentrate to provide the appropriate application rates. Compound requirements are based upon a 12 milliliter (mL) application volume at a rate of 187 liters per hectare (L/ha). Stocks solutions of the safeners were prepared following the same procedure. Spray solutions of the safeners and experimental compound mixtures were prepared by adding the stock solutions to the appropriate amount of dilution solution to form a 12 mL spray solution in two-way combinations. Formulated compounds were applied to the plant material with an overhead Mandel track sprayer equipped with 8002E nozzles calibrated to deliver 187 L/ha over an application area of 0.503 square meters (m^2) at a spray height of 18 inches (43 centimeters (cm)) above average plant canopy. Control plants were sprayed in the same manner with the solvent blank. All herbicide application (component a) rates are in g ae/ha and all safener (component b) rates are in g ai/ha.
(§3) The treated plants and control plants were placed in a greenhouse as described above and watered by sub-irrigation to prevent wash-off of the test compounds. After 20-22 d, the condition of the test plants as compared with that of the control plants was determined visually and scored on a scale of 0 to 100 percent where 0 corresponds to no injury and 100 corresponds to complete kill. The condition of the test plants was compared with that of the control plants as determined visually and scored on a scale of 0 to 100 percent, where 0 corresponds to no injury and 100 corresponds to complete kill. Colby's equation was used to determine the herbicidal effects expected from the mixtures.
The safener cloquintocet-mexyl was combined with compound 1, compound 2, compound 3, compound 7, compound 8, compound 9, compound 10, compound 11, compound 12, compound 13, compound 14, compound 15, compound 16, compound 17, compound 18, compound 19, and compound 20, and applied to spring wheat (TRZAS), winter wheat (TRZAW), and spring barley (HORVS) and the phytotoxicity of the herbicidal compositions was measured. […]

The next data set deals with lambsquarters (CHEAL). The data set is described as follows: Postemergence greenhouse trial, % visual injury on lambsquarters. To be noted: CHEAL. It counts as in vivo, Chenopodium album. In outline:
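Visual injury, 0 (none) to 100 (complete kill), rated 20-22 d after overhead track-sprayer application at 187 L/ha; Colby's equation gave expected mixture responses. Herbicide (g ae/ha) and cloquintocet-mexyl safener (g ai/ha) diluted in aqueous 1.5% v/v Agri-dex, applied to weeds at 2–3 true leaves.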

A further data set has as its system common poppy (PAPRH). The data set is described as follows: Postemergence greenhouse trial, % visual injury on common poppy. To be noted: PAPRH; for % visual injury, Ob: CQC-m 0 g/ha. It counts as in vivo, Papaver rhoeas. As for the experimental part:
as §1, §2
as §3, with “mixtures. […]” for “mixtures.”

For another data set, the system named is wild mustard (SINAR). In words: Postemergence greenhouse trial, % visual injury on wild mustard. The conditions noted are these: SINAR; for % visual injury, Ob: CQC-m 0 g/ha. The class given is in vivo, Sinapis arvensis. The procedure:
as §1, §2
as §3, with “mixtures. […]” for “mixtures.”

Data set [1] has as its system bird's-eye speedwell (VERPE). The data set is described as follows: Postemergence greenhouse trial, % visual injury on bird's-eye speedwell. To be noted: VERPE; for % visual injury, Ob: CQC-m 0 g/ha. It counts as in vivo, Veronica persica. The procedure: as §1, §2
as §3, with “mixtures. […]” for “mixtures.”

Where [2] appears, read: compound 8 4.380 + CQC-m 0 g/ha.
[3] abbreviates: compound 4.375 g/ha, CQC-m 0 g/ha.
Setting [4] is: compound 8.75 g/ha, CQC-m 0 g/ha.
Where [5] appears, read: compound 17.5 g/ha, CQC-m 0 g/ha.

Consider `COC(=O)c1nc(-c2ccc3cc[nH]c3c2F)c(F)c(N)c1Cl` [compound 8], for which the “% visual injury, observed (Ob)” value in the data set with spring barley (HORVS) (setting [2]) is given as 12%; in the data set with spring barley (HORVS) (compound 8 8.75 + CQC-m 0 g/ha), 18%; in the data set on spring barley (HORVS) (compound 8 17.5 + CQC-m 0 g/ha), 31%; in the data set on spring barley (HORVS) (compound 8 35 + CQC-m 0 g/ha) it was 43%; in the data set on spring barley (HORVS) (compound 8 70 + CQC-m 0 g/ha), 53%; with lambsquarters (CHEAL) (setting [2]), 86%. Also, the “% visual injury, observed (Ob)” value with lambsquarters (CHEAL) (compound 8 8.75 + CQC-m 0 g/ha) was determined as 92%; in the data set with lambsquarters (CHEAL) (compound 8 17.5 + CQC-m 0 g/ha), 99%; with lambsquarters (CHEAL) (compound 8 35 + CQC-m 0 g/ha), 100%; with lambsquarters (CHEAL) (compound 8 70 + CQC-m 0 g/ha), 100%; in the data set on common poppy (PAPRH) (setting [2]), 97%; with common poppy (PAPRH) (compound 8 8.75 + CQC-m 0 g/ha), 99%. Further, the “% visual injury, observed (Ob)” value in the data set with common poppy (PAPRH) (compound 8 17.5 + CQC-m 0 g/ha) is 100%; in the data set with common poppy (PAPRH) (compound 8 35 + CQC-m 0 g/ha) it was 100%; with common poppy (PAPRH) (compound 8 70 + CQC-m 0 g/ha) it was 100%; with wild mustard (SINAR) (setting [2]), 76%; in the data set on wild mustard (SINAR) (compound 8 8.75 + CQC-m 0 g/ha), 82%; in the data set with wild mustard (SINAR) (compound 8 17.5 + CQC-m 0 g/ha), 96%. The “% visual injury, observed (Ob)” value in the data set with wild mustard (SINAR) (compound 8 35 + CQC-m 0 g/ha) is recorded as 99%; in the data set on wild mustard (SINAR) (compound 8 70 + CQC-m 0 g/ha), 98%; in data set [1] (setting [2]), 83%; in data set [1] (compound 8 8.75 + CQC-m 0 g/ha), 92%; in data set [1] (compound 8 17.5 + CQC-m 0 g/ha) it was 96%; in data set [1] (compound 8 35 + CQC-m 0 g/ha), 98%. In data set [1] (compound 8 70 + CQC-m 0 g/ha), the “% visual injury, observed (Ob)” value is 100%.

`COC(=O)c1nc(-c2ccc3cc[nH]c3c2F)c(F)c(N)c1OC` [compound 12]: the “% visual injury, Ob” value with spring barley (HORVS) (compound 4.380 g/ha, CQC-m 0) is on record as 18%; in the data set on spring barley (HORVS) (compound 8.75 g/ha, CQC-m 0), 23%; in the data set on spring barley (HORVS) (compound 17.5 g/ha, CQC-m 0) it was 37%; in the data set with spring barley (HORVS) (compound 35 g/ha, CQC-m 0), 47%; in the data set on spring barley (HORVS) (compound 70 g/ha, CQC-m 0), 60%. The pest or weed control at 4.38 g/ha in the data set with lambsquarters (CHEAL) (Chenopodium album, post-emergence, compound 4.380 g/ha, CQC-m 0, read-out: % visual injury, Ob) was found to be 40%; in the data set on common poppy (PAPRH) (Papaver rhoeas, post-emergence, compound 4.380 g/ha, CQC-m 0, read-out: % visual injury, Ob), 90%. The pest or weed control at 8.75 g/ha with lambsquarters (CHEAL) (Chenopodium album, post-emergence, compound 8.75 g/ha, CQC-m 0, read-out: % visual injury, Ob) was found to be 50%; with common poppy (PAPRH) (Papaver rhoeas, post-emergence, compound 8.75 g/ha, CQC-m 0, read-out: % visual injury, Ob), 93%. Further, the pest or weed control at 17.5 g/ha was determined as 72% in the data set with lambsquarters (CHEAL) (Chenopodium album, post-emergence, compound 17.5 g/ha, CQC-m 0, read-out: % visual injury, Ob) and 95% in the data set on common poppy (PAPRH) (Papaver rhoeas, post-emergence, compound 17.5 g/ha, CQC-m 0, read-out: % visual injury, Ob). For the same molecule, the pest or weed control at 35 g/ha was determined as 88% in the data set with lambsquarters (CHEAL) (Chenopodium album, post-emergence, compound 35 g/ha, CQC-m 0, read-out: % visual injury, Ob) and 100% in the data set with common poppy (PAPRH) (Papaver rhoeas, post-emergence, compound 35 g/ha, CQC-m 0, read-out: % visual injury, Ob). In addition, the pest or weed control at 70 g/ha in the data set on lambsquarters (CHEAL) (Chenopodium album, post-emergence, compound 70 g/ha, CQC-m 0, read-out: % visual injury, Ob) turned out to be 91%; in the data set on common poppy (PAPRH) (Papaver rhoeas, post-emergence, compound 70 g/ha, CQC-m 0, read-out: % visual injury, Ob), 100%.

Regarding `COc1c(C(=O)O)nc(-c2ccc3cc[nH]c3c2F)c(F)c1N` [compound 13], the “% visual injury, Ob” value in the data set on spring barley (HORVS) (setting [3]) turned out to be 30%; in the data set with spring barley (HORVS) (setting [4]) it was 38%; in the data set with spring barley (HORVS) (setting [5]) it was 55%; in the data set with spring barley (HORVS) (compound 35 g/ha, CQC-m 0 g/ha) it was 64%; in the data set on spring barley (HORVS) (compound 70 g/ha, CQC-m 0 g/ha) it was 73%; with common poppy (PAPRH) (compound 4.375 g/ha), 90%. Further, the “% visual injury, Ob” value with common poppy (PAPRH) (compound 8.75 g/ha) is 100%; in the data set on common poppy (PAPRH) (compound 17.5 g/ha), 100%; in the data set with common poppy (PAPRH) (compound 35 g/ha) it was 100%; in the data set with common poppy (PAPRH) (compound 70 g/ha), 100%; in the data set on wild mustard (SINAR) (compound 4.375 g/ha), 95%; with wild mustard (SINAR) (compound 8.75 g/ha) it was 100%. The “% visual injury, Ob” value in the data set with wild mustard (SINAR) (compound 17.5 g/ha) was found to be 100%; in the data set on wild mustard (SINAR) (compound 35 g/ha), 100%; in the data set on wild mustard (SINAR) (compound 70 g/ha) it was 100%; in data set [1] (compound 4.375 g/ha), 85%; in data set [1] (compound 8.75 g/ha) it was 93%; in data set [1] (compound 17.5 g/ha), 98%. The “% visual injury, Ob” value came out at 98% in data set [1] (compound 35 g/ha) and 100% in data set [1] (compound 70 g/ha).

`Nc1cc(-c2ccc3cc[nH]c3c2F)nc(C(=O)O)c1Cl` [compound 15]: the “% visual injury, Ob” value with spring barley (HORVS) (setting [3]) was 0%; with spring barley (HORVS) (setting [4]), 0%; in the data set on spring barley (HORVS) (setting [5]) it was 0%; in the data set with spring barley (HORVS) (compound 35 g/ha, CQC-m 0 g/ha), 10%; with spring barley (HORVS) (compound 70 g/ha, CQC-m 0 g/ha) it was 10%; with common poppy (PAPRH) (compound 4.375 g/ha) it was 90%. Moreover, the “% visual injury, Ob” value in the data set on common poppy (PAPRH) (compound 8.75 g/ha) is listed as 100%; in the data set with common poppy (PAPRH) (compound 17.5 g/ha), 100%; in the data set on common poppy (PAPRH) (compound 35 g/ha), 100%; in the data set on wild mustard (SINAR) (compound 4.375 g/ha), 93%; in the data set with wild mustard (SINAR) (compound 8.75 g/ha), 100%; in the data set on wild mustard (SINAR) (compound 17.5 g/ha), 100%. Besides, the “% visual injury, Ob” value in the data set with wild mustard (SINAR) (compound 35 g/ha) was determined as 100%; in the data set on wild mustard (SINAR) (compound 70 g/ha) it was 100%; in data set [1] (compound 4.375 g/ha) it was 85%; in data set [1] (compound 8.75 g/ha), 85%; in data set [1] (compound 17.5 g/ha), 90%; in data set [1] (compound 35 g/ha), 93%. Moreover, the “% visual injury, Ob” value in data set [1] (compound 70 g/ha) was 95%.
